Results as given in ChEMBL document CHEMBL4325840, “Design, synthesis and evaluation of novel hybrids between 4-anilinoquinazolines and substituted triazoles as potent cytotoxic agents” (Bioorg Med Chem Lett, 2018).
Where a name gives a salt, the structure may show the parent alone.

Legend:
[1] = tested on: SK-LU-1; experiment: Cytotoxicity against human SK-LU-1 cells after 3 days by MTT assay; type: functional, cell-based
[2] = tested on: HepG2; experiment: Cytotoxicity against human HepG2 cells after 3 days by MTT assay; type: functional, cell-based
[3] = tested on: KB; experiment: Cytotoxicity against human KB cells after 3 days by MTT assay; type: functional, cell-based
[4] = tested on: SK-LU-1; experiment: Potency index, ratio of erlotinib IC50 to compound IC50 for human SK-LU-1 cells; type: functional
[5] = tested on: SK-LU-1; experiment: Potency index, ratio of erlotinib hydrochloride IC50 to compound IC50 for human SK-LU-1 cells; type: functional
[6] = tested on: KB; experiment: Potency index, ratio of erlotinib IC50 to compound IC50 for human KB cells; type: functional
[7] = tested on: HepG2; experiment: Potency index, ratio of erlotinib IC50 to compound IC50 for human HepG2 cells; type: functional
[8] = tested on: KB; experiment: Potency index, ratio of erlotinib hydrochloride IC50 to compound IC50 for human KB cells; type: functional
[9] = tested on: HepG2; experiment: Potency index, ratio of erlotinib hydrochloride IC50 to compound IC50 for human HepG2 cells; type: functional

SMILES	IC50 ([1]; Homo sapiens, SK-LU-1, 72 h) [µM]	IC50 ([2]; Homo sapiens, HepG2, 72 h) [µM]	IC50 ([3]; Homo sapiens, KB, 72 h) [µM]	Ratio IC50 [4]	Ratio IC50 [5]	Ratio IC50 [6]	Ratio IC50 [7]	Ratio IC50 [8]	Ratio IC50 [9]	IC50 ([1]; sk-lu-1) [µM]	IC50 ([3]; kb) [µM]	IC50 ([2]; hepg2) [µM]
O=[N+]([O-])c1ccc(-n2cc(-c3cccc(Nc4ncnc5cc6c(cc45)OCO6)c3)nn2)cc1	44.5	11.3	30.1									
O=[N+]([O-])c1ccccc1-n1cc(-c2cccc(Nc3ncnc4cc5c(cc34)OCCO5)c2)nn1	1.03	0.14	0.04	<=100	<=100	<=100	<=100	<=100	<=100			
Cc1c2ccncc2c(C)c2c1[nH]c1ccccc12 [ELLIPTECINE]	1.38	2.72	1.95									
C#Cc1cccc(Nc2ncnc3cc(OCCOC)c(OCCOC)cc23)c1 [ERLOTINIB]										99.8	13	
C#Cc1cccc(Nc2ncnc3ccccc23)c1	4.16	4.16	5.46	<=100	<=100	<=100	<=100	<=100	<=100			
N#Cc1cc(-n2cc(-c3cccc(Nc4ncnc5cc6c(cc45)OCCCO6)c3)nn2)ccc1C(F)(F)F	1.81	1.61	1.49	<=100	<=100	<=100	<=100	<=100	<=100			
O=[N+]([O-])c1cccc(-n2cc(-c3cccc(Nc4ncnc5cc6c(cc45)OCCO6)c3)nn2)c1	5.67	0.88	3.51	<=100	<=100	<=100	<=100	<=100	<=100			
O=[N+]([O-])c1cccc(-n2cc(-c3cccc(Nc4ncnc5cc6c(cc45)OCO6)c3)nn2)c1	6.66	6.88	6.35	<=100	<=100	<=100	<=100	<=100	<=100			
O=[N+]([O-])c1cccc(-n2cc(-c3cccc(Nc4ncnc5ccccc45)c3)nn2)c1	260	287	104									
O=[N+]([O-])c1ccccc1-n1cc(-c2cccc(Nc3ncnc4cc5c(cc34)OCO5)c2)nn1	217	207	193									
C#Cc1cccc(Nc2ncnc3cc4c(cc23)OCO4)c1	64.9	26.2	75.6									
C#Cc1cccc(Nc2ncnc3cc4c(cc23)OCCCO4)c1	80.7	69.9	54.8									
O=[N+]([O-])c1ccccc1-n1cc(-c2cccc(Nc3ncnc4ccccc34)c2)nn1	4.76	4.64	5.5	<=100	<=100	<=100	<=100	<=100	<=100			
N#Cc1cc(-n2cc(-c3cccc(Nc4ncnc5cc6c(cc45)OCO6)c3)nn2)ccc1C(F)(F)F	27.5	6.1	4.59	<=100	<=100	<=100	<=100	<=100	<=100			
O=[N+]([O-])c1ccccc1-n1cc(-c2cccc(Nc3ncnc4cc5c(cc34)OCCCO5)c2)nn1	14.8	43.4	20.4	<=100	<=100	<=100	<=100	<=100	<=100			
C#Cc1cccc(Nc2ncnc3cc(OCCOC)c(OCCOC)cc23)c1 [ERLOTINIB HYDROCHLORIDE]										31.2	49.6	14.2
O=[N+]([O-])c1ccc(-n2cc(-c3cccc(Nc4ncnc5cc6c(cc45)OCCO6)c3)nn2)cc1	54.8	230	79.1									
O=[N+]([O-])c1cccc(-n2cc(-c3cccc(Nc4ncnc5cc6c(cc45)OCCCO6)c3)nn2)c1	230	76.8	53.2									
C#Cc1cccc(Nc2ncnc3cc4c(cc23)OCCO4)c1	3.36	2.84	2.6	<=100	<=100	<=100	<=100	<=100	<=100			
N#Cc1cc(-n2cc(-c3cccc(Nc4ncnc5cc6c(cc45)OCCO6)c3)nn2)ccc1C(F)(F)F	4.44	6.09	0.27	<=100	<=100	<=100	<=100	<=100	<=100			
O=[N+]([O-])c1ccc(-n2cc(-c3cccc(Nc4ncnc5ccccc45)c3)nn2)cc1	9.16	8.11	5.47	<=100	<=100	<=100	<=100	<=100	<=100			
N#Cc1cc(-n2cc(-c3cccc(Nc4ncnc5ccccc45)c3)nn2)ccc1C(F)(F)F	4.5	1.86	1.46	<=100	<=100	<=100	<=100	<=100	<=100			
